Columns and labels:
[1] = system: Desulfovibrio alaskensis 14563; experiment: H2S and Log (Growth) efficacy against SRB, 96-Well Plate Method; type: cell-based
Experimental: A lyophilized Desulfovibrio alaskensis 14563, Desulfovibrio longus 51456, and Desulfovibrio gabonensis 700201 pure cultures received from ATCC were resuspended individually in 500 ul of MB 1250. Aseptically, the content was transferred to a 5-mL tube of MB1250 medium. The cultures were incubated in an anaerobic chamber at 30° C. for 72 hrs. Subsequently, an individual stock culture with a final concentration of 25% glycerol were prepared by adding equal volumes of culture and 50% glycerol. 1 ml of the cultures were then transferred to 2-ml cryogenic vials and stored at −80° C. The purity of the stock cultures was evaluated through PCR, by amplifying the 16S rDNA region, and thus, it was verified that the original ATCC sample was a pure culture. 48-hour cultures of ATCC Desulfovibrio alaskensis 14563, Desulfovibrio longus 51456, and Desulfovibrio gabonensis 700201 were prepared in an anaerobic chamber. Each culture was prepared as a 1:10 culture by taking 1 milliliter (mL) of a pure culture and inoculating 9 milliliters (mL) of fresh MB1250 media. The Desulfovibrio alaskensis 14563 and Desulfovibrio gabonensis 700201 were all grown at 30° C. and the Desulfovibrio longus 51456 culture was grown at 35° C.
After the 48-hour incubation, 600 microliters (μL) were taken from each culture and optical density (OD) was measured using a Thermofisher Spectronic 200 Spectrophotometer at 600 nm. Each culture was diluted to 0.05 OD600 in fresh MB1250 media and added to the 96 well plates. Edge wells were not used due to their inherent variability and evaporation of the media. Each of the components were added at their respective concentrations for a final volume of 500 μL per well. In Table 3, 6 and 7, the concentrations of the compound used for the experiments are listed. Each experiment was done with at least three replicates for different treatments and non-treatment controls. […] Plates were then sealed with a titer-top and placed into anaerobic boxes and incubated in an anaerobic incubator at 30° C.
At each time point, sulfide samples were taken, and enumeration plates were made. Enumeration plates were made to determine the log growth in each dosed sample. For this process, enumeration plates were prepared by adding 180 μL fresh media MB1250 containing 0.01 wt % ferrous ammonium sulfate. 20 μL was taken from each well of the challenge plates and transferred to the enumeration plates using a 20-200 μL multichannel pipette. Enumeration plates were mixed three times using the multichannel pipette and serial diluted down the plate tenfold (20 μL into 180 μL). This serial dilution process was repeated for all challenge plate rows giving a total of 6 enumeration plates.
After 7 days these enumeration plates were read. The ferrous ammonium sulfate in each plate would be converted to iron sulfide, changing wells with SRB growth from clear to black. By counting the number of black wells in a row, the log growth from the original well in the challenge plate can be determined.
To determine hydrogen sulfide production in each sample, sulfide samples were also taken from each challenge plate. From each well, 9 μL were taken and added to 60 μL of 2% zinc acetate with 0.02% acetic acid. Then, 180 μL of milliQ water was added. 60 μL of stock solution 1 containing 64% sulfuric acid, <1% Dimethyl-4-phenylenediamine (DMPD), water to 100% was added to each well on the plates. This was followed by 3 μL of stock solution 3 containing 50% Iron (III) chloride. All chemicals are ordered from Fisher Scientific and used as received. These were mixed three times and read after 15 minutes. The plates were read at 670 nm using a Biotek microplate reader. Absorbance readings were converted to mM using a standard curve and this was converted to parts per million using the molar mass of sulfur. The standard curves were made using sodium sulfide nonahydrate solutions to give final solutions of 0, 0.125, 0.25 0.5, 1.0, and 1.5 ppm.

[2] = system: sulfate reducing bacteria; experiment: Efficacy in inhibiting H2S production from sulfate reducing bacteria; type: cell-based
Experimental: To understand the hydrogen sulfide inhibition efficacy of the N-hydroxycarboxamide compounds of the present invention, several compounds were tested. Some compounds that can be used in this H2S inhibiting composition are disclosed in Table 2. For the testing procedures, the compounds were dissolved in DMSO, resulting in a stock solution of about 8000-100000 ppm, which was subsequently diluted in 96-well plates or 10 mL serum vials containing media and selected culture to give varying concentrations from 0.09 to 1000 ppm of the compounds in final solution for efficacy testing.
Strains of commonly found bacteria were used for testing the efficacy of the compounds, viz. Desulfovibrio alaskensis, Desulfovibrio longus and Desulfovibrio gabonensis. Media for the cultures was also prepared by using a standard method. The cultures were aseptically used and incubated under anaerobic conditions. Two well established methods were used for testing various compounds:
The compounds C1, C12, C14, C15 and C16 were tested individually to understand each of their efficacies in inhibiting the H2S production from sulfate reducing bacteria, under standard temperature and pressure conditions. The efficacy of compounds C14 and C15 against hydrogen sulfide production are disclosed in Example 1, Tables 6 and 7.

## O=C(NO)c1ccccc1 [C15]
[1]; Table 6 run, 2 days, 7.615 PPM
  H2S: 103.6 PPM
  Log (Growth): 7.7
[1]; Table 6 run, 2 days, 15.75 PPM
  H2S: 54.7 PPM
  Log (Growth): 7.7
[1]; Table 6 run, 2 days, 31.25 PPM
  H2S: 54.4 PPM
  Log (Growth): 7.0
[1]; Table 6 run, 2 days, 125 PPM
  H2S: 130.2 PPM
  Log (Growth): 7.3
[1]; Table 6 run, 2 days, 500 PPM
  H2S: 155.7 PPM
  Log (Growth): 7.3
[1]; Table 6 run, 2 days, 1000 PPM
  H2S: 130.7 PPM
  Log (Growth): 8.0
[1]; Table 6 run, 5 days, 7.615 PPM
  H2S: 35.2 PPM
  Log (Growth): 8.0
[1]; Table 6 run, 5 days, 15.75 PPM
  H2S: 42.7 PPM
  Log (Growth): 7.3
[1]; Table 6 run, 5 days, 31.25 PPM
  H2S: 26.3 PPM
  Log (Growth): 7.7
[1]; Table 6 run, 5 days, 125 PPM
  H2S: 55.5 PPM
  Log (Growth): 7.0
[1]; Table 6 run, 5 days, 500 PPM
  H2S: 31.8 PPM
  Log (Growth): 7.0
[1]; Table 6 run, 5 days, 1000 PPM
  H2S: 73.3 PPM
  Log (Growth): 8.0
[2]; Tables 6 and 7
  activity in reducing H2S production: did not show significant activity

## CCCCCCCC(=O)NO [C16]
[1]; Table 7 run, 2 days, 7.615 PPM
  H2S: 83.5 PPM
  Log (Growth): 7.7
[1]; Table 7 run, 2 days, 15.75 PPM
  H2S: 76.9 PPM
  Log (Growth): 7.7
[1]; Table 7 run, 2 days, 31.25 PPM
  H2S: 35.1 PPM
  Log (Growth): 7.3
[1]; Table 7 run, 2 days, 125 PPM
  H2S: 13.3 PPM
  Log (Growth): 6.3
[1]; Table 7 run, 2 days, 500 PPM
  H2S: 2.7 PPM
  Log (Growth): 5.3
[1]; Table 7 run, 2 days, 1000 PPM
  H2S: 2.2 PPM
  Log (Growth): 3.0
[1]; Table 7 run, 5 days, 7.615 PPM
  H2S: 27.7 PPM
  Log (Growth): 7.3
[1]; Table 7 run, 5 days, 15.75 PPM
  H2S: 29.2 PPM
  Log (Growth): 7.0
[1]; Table 7 run, 5 days, 31.25 PPM
  H2S: 22.1 PPM
  Log (Growth): 7.3
[1]; Table 7 run, 5 days, 125 PPM
  H2S: 6.9 PPM
  Log (Growth): 5.0
[1]; Table 7 run, 5 days, 500 PPM
  H2S: 2.1 PPM
  Log (Growth): 4.3
[1]; Table 7 run, 5 days, 1000 PPM
  H2S: 2.0 PPM
  Log (Growth): 0.0
[2]; anaerobic conditions
  efficacy for inhibiting hydrogen sulfide production: high efficacy

— patent US20230183640A1, “METABOLIC INHIBITORS WITH EFFICACY FOR INHIBITING SULFIDE PRODUCTION IN HARSH ENVIRONMENTS” (MC (US) 3 LLC, priority 2020, published 2023)
